Values of other authors, collected in patent US11472859B2, “Method and composition for treating neuronal hyper-excitabtiity” (The Regents of the University of California, priority 2016, dated 2022).
Entries after “also recorded” stand apart in the source; their conditions may differ.

Legend:
spasticity = settings: for anti-spasticity effect: systemic or spinal administration, clinical (and experimental animal) studies
[1] = system: brain or spinal parenchymal GABA release; settings: after systemic delivery

NCC(CC(=O)O)c1ccc(Cl)cc1 (stereo not shown) [baclofen]
side effects (spasticity; clinical use, systemic or spinal): major side effects such as general sedation and progressive tolerance development; also recorded: unwanted systemic side effects such as sedation | anti-spasticity effect (spasticity): most potent anti-spasticity pharmacological treatment; also recorded: effective in modulating spasticity; also recorded: potent antispasticity effect

Cc1ccsc1C(=CCCN1CCC[C@@H](C(=O)O)C1)c1sccc1C [tiagabine]
anti-spasticity effect (spasticity): only a weak or no anti-spasticity effect | potentiation of brain or spinal parenchymal GABA release [1]: relatively modest potentiation
